US20250270213A1, “PI3Ka INHIBITORS” (Synnovation Therapeutics, Inc., priority 2022, published 2025)

These compounds were tested on T47D (PIK3CA H1047R) cells (assay: pS473 AKT assay with 2.5% FBS, T47D cells). Details: Homo sapiens, pSer473 AKT, DMEM with 2.5% FBS, 2 h treatment, read-out: T47D_IC50.
Type: cell-based
How it was run: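 T47D (PIK3CA H1047R) cells were switched to DMEM with 2.5% FBS and exposed to compounds for 2 h. After paraformaldehyde fixation, pSer473 AKT was detected by in-cell ELISA (rabbit primary, HRP anti-rabbit secondary, chemiluminescence); IC50 values were fitted from the concentration series.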
With `CC(=O)N1CC(n2ncc3c4c(C(C)Nc5ccc(Cl)nc5-c5ccc(=O)n(C)c5)cc(C)cc4c(=O)n(C)c32)C1` (stereo not shown) [Compound 100, 3-(1-Acetylazetidin-3-yl)-9-(1-((6-chloro-1′-methyl-6′-oxo-1′,6′-dihydro-[2,3′-bipyridin]-3-yl)amino)ethyl)-4,7-dimethyl-3,4-dihydro-5H-pyrazolo[3,4-c]isoquinolin-5-one] the IC50 was < 1000 nM.
With `CNC(=O)c1ccc(-c2nc(Cl)ccc2NC(C)c2cc(C)cc3c(=O)n(C)c4c(cnn4C4CN(C(C)=O)C4)c23)cn1` (stereo not shown) [Compound 101, 3-((1-(3-(1-acetylazetidin-3-yl)-4,7-dimethyl-5-oxo-4,5-dihydro-3H-pyrazolo[3,4-c]isoquinolin-9-yl)ethyl)amino)-6-chloro-N-methyl-[2,3′-bipyridine]-6′-carboxamide] the IC50 was < 1000 nM.
`CC(=O)N1CC(n2ncc3c4c(C(C)Nc5ccc(Cl)nc5-c5ncn(CCO)n5)cc(C)cc4c(=O)n(C)c32)C1` (stereo not shown) [Compound 102, 3-(1-acetylazetidin-3-yl)-9-(1-((6-chloro-2-(1-(2-hydroxyethyl)-1H-1,2,4-triazol-3-yl)pyridin-3-yl)amino)ethyl)-4,7-dimethyl-3,4-dihydro-5H-pyrazolo[3,4-c]isoquinolin-5-one] showed an IC50 of 1000 to 5000 nM.
`Cc1cc(C(C)Nc2ccc(Cl)nc2-c2ncn(C)n2)c2c(c1)c(=O)n(C)c1c2cnn1C1CN(C(=O)CO)C1` (stereo not shown) [Compound 103, 9-(1-((6-Chloro-2-(1-methyl-1H-1,2,4-triazol-3-yl)pyridin-3-yl)amino)ethyl)-3-(1-(2-hydroxyacetyl)azetidin-3-yl)-4,7-dimethyl-3,4-dihydro-5H-pyrazolo[3,4-c]isoquinolin-5-one] was tested, and the IC50 was < 1000 nM.
For `Cc1cc(C(C)Nc2ccc(Cl)nc2-c2ncn(C)n2)c2c(c1)c(=O)n(C)c1c2cnn1C1CN(C(=O)CN(C)C)C1` (stereo not shown) [Compound 104, 9-(1-((6-Chloro-2-(1-methyl-1H-1,2,4-triazol-3-yl)pyridin-3-yl)amino)ethyl)-3-(1-(dimethylglycyl)azetidin-3-yl)-4,7-dimethyl-3,4-dihydro-5H-pyrazolo[3,4-c]isoquinolin-5-one], the IC50 was < 1000 nM.
With `[2H]C([2H])([2H])n1c(=O)c2cc(C)cc(C(C)Nc3ccc(Cl)nc3-c3ncn(C)n3)c2c2cnn([C@H]3CCN(C)C3)c21` (stereo partly drawn) [Compound 105, 9-(1-((6-Chloro-2-(1-methyl-1H-1,2,4-triazol-3-yl)pyridin-3-yl)amino)ethyl)-7-methyl-4-(methyl-d3)-3-((S)-1-methylpyrrolidin-3-yl)-3,4-dihydro-5H-pyrazolo[3,4-c]isoquinolin-5-one] the IC50 was < 1000 nM.
With `Cc1cc(C(C)Nc2ccc(Cl)nc2-c2cnn(C)c2)c2c(c1)c(=O)n(C)c1c2cnn1CC1CCN(CC(F)F)CC1` (stereo not shown) [Compound 106, 9-(1-((6-Chloro-2-(1-methyl-1H-pyrazol-4-yl)pyridin-3-yl)amino)ethyl)-3-((1-(2,2-difluoroethyl)piperidin-4-yl)methyl)-4,7-dimethyl-3,4-dihydro-5H-pyrazolo[3,4-c]isoquinolin-5-one] the IC50 was < 1000 nM.
With `CC(=O)N1CCC(Cn2ncc3c4c(C(C)Nc5ccc(Cl)nc5-c5cnn(C)c5)cc(C)cc4c(=O)n(C)c32)CC1` (stereo not shown) [Compound 107, 3-((1-acetylpiperidin-4-yl)methyl)-9-(1-((6-chloro-2-(1-methyl-1H-pyrazol-4-yl)pyridin-3-yl)amino)ethyl)-4,7-dimethyl-3,4-dihydro-5H-pyrazolo[3,4-c]isoquinolin-5-one] the IC50 was < 1000 nM.
With `Cc1cc(C(C)Nc2ccc(Cl)nc2-c2cnn(C)c2)c2c(c1)c(=O)n(C)c1c2cnn1CC1CCN(C(=O)N(C)C)CC1` (stereo not shown) [Compound 108, 4-((9-(1-((6-chloro-2-(1-methyl-1H-pyrazol-4-yl)pyridin-3-yl)amino)ethyl)-4,7-dimethyl-5-oxo-4,5-dihydro-3H-pyrazolo[3,4-c]isoquinolin-3-yl)methyl)-N,N-dimethylpiperidine-1-carboxamide] the IC50 was < 1000 nM.
`CCNC(=O)N1CCC(Cn2ncc3c4c(C(C)Nc5ccc(Cl)nc5-c5ccncc5F)cc(C)cc4c(=O)n(C)c32)CC1` (stereo not shown) [Compound 109, 4-((9-(1-((6-Chloro-3′-fluoro-[2,4′-bipyridin]-3-yl)amino)ethyl)-4,7-dimethyl-5-oxo-4,5-dihydro-3H-pyrazolo[3,4-c]isoquinolin-3-yl)methyl)-N-ethylpiperidine-1-carboxamide] was tested, and the IC50 was < 1000 nM.
In the case of `Cc1cc(C(C)Nc2ccc(Cl)nc2-c2ccncc2F)c2c(c1)c(=O)n(C)c1c2cnn1CC1CCN(CC(F)F)C1` (stereo not shown) [Compound 110, 9-(1-((6-Chloro-3′-fluoro-[2,4′-bipyridin]-3-yl)amino)ethyl)-3-((1-(2,2-difluoroethyl)pyrrolidin-3-yl)methyl)-4,7-dimethyl-3,4-dihydro-5H-pyrazolo[3,4-c]isoquinolin-5-one], the IC50 is reported as < 1000 nM.
`Cc1cc(C(C)Nc2ccc(Cl)nc2-c2ncn(C)n2)c2c(c1)c(=O)n(C)c1c(C(C)O)ncn21` (stereo not shown) [Compound 111, 9-(1-((6-Chloro-2-(1-methyl-1H-1,2,4-triazol-3-yl)pyridin-3-yl)amino)ethyl)-3-(1-hydroxyethyl)-4,7-dimethylimidazo[1,5-a]quinazolin-5(4H)-one] was tested, and the IC50 was < 1000 nM.
For `Cc1cc(C(C)Nc2ccc(Cl)nc2-c2ncn(C)n2)c2c(c1)c(=O)n(C)c1c(-c3cccnc3)ncn21` (stereo not shown) [Compound 112, 9-(1-((6-Chloro-2-(1-methyl-1H-1,2,4-triazol-3-yl)pyridin-3-yl)amino)ethyl)-4,7-dimethyl-3-(pyridin-3-yl) imidazo[1,5-a]quinazolin-5(4H)-one], the IC50 was < 1000 nM.
`Cc1cc(C(C)Nc2ccc(Cl)nc2-c2ncn(C)n2)c2c(c1)c(=O)n(C)c1c(-c3cccnc3C)ncn21` (stereo not shown) [Compound 113, 9-(1-((6-chloro-2-(1-methyl-1H-1,2,4-triazol-3-yl)pyridin-3-yl)amino)ethyl)-4,7-dimethyl-3-(2-methylpyridin-3-yl)imidazo[1,5-a]quinazolin-5(4H)-one] was tested, and the IC50 was < 1000 nM.
`Cc1cc(C(C)Nc2ccc(Cl)nc2-c2ncn(C)n2)c2c(c1)c(=O)n(C)c1c(-c3cncnc3)ncn21` (stereo not shown) [Compound 114, 9-(1-((6-chloro-2-(1-methyl-1H-1,2,4-triazol-3-yl)pyridin-3-yl)amino)ethyl)-4,7-dimethyl-3-(pyrimidin-5-yl)imidazo[1,5-a]quinazolin-5(4H)-one] was tested, and the IC50 was < 1000 nM.
In the case of `Cc1cc(C(C)Nc2ccc(Cl)nc2-c2ncn(C)n2)c2c(c1)c(=O)n(C)c1c(-c3ccnc(C)c3)ncn21` (stereo not shown) [Compound 115, 9-(1-((6-chloro-2-(1-methyl-1H-1,2,4-triazol-3-yl)pyridin-3-yl)amino)ethyl)-4,7-dimethyl-3-(2-methylpyridin-4-yl)imidazo[1,5-a]quinazolin-5(4H)-one], the IC50 is reported as < 1000 nM.
`Cc1cc(C(C)Nc2ccc(Cl)nc2-c2cnn(C)c2)c2c(c1)c(=O)n(C)c1c(-c3cccnc3C)ncn21` (stereo not shown) [Compound 116, 9-(1-((6-Chloro-2-(1-methyl-1H-pyrazol-4-yl)pyridin-3-yl)amino)ethyl)-4,7-dimethyl-3-(2-methylpyridin-3-yl) imidazo[1,5-a]quinazolin-5(4H)-one] was tested, and the IC50 was < 1000 nM.
For `Cc1cc(C(C)Nc2ccc(Cl)nc2-c2cnn(C)c2)c2c(c1)c(=O)n(C)c1c(-c3cncnc3)ncn21` (stereo not shown) [Compound 117, 9-(1-((6-chloro-2-(1-methyl-1H-pyrazol-4-yl)pyridin-3-yl)amino)ethyl)-4,7-dimethyl-3-(pyrimidin-5-yl)imidazo[1,5-a]quinazolin-5(4H)-one], the IC50 was < 1000 nM.
In the case of `CNC(=O)c1cc(-c2ncn3c4c(C(C)Nc5ccc(Cl)nc5-c5cnn(C)c5)cc(C)cc4c(=O)n(C)c23)ccn1` (stereo not shown) [Compound 118, 4-(9-(1-((6-chloro-2-(1-methyl-1H-pyrazol-4-yl)pyridin-3-yl)amino)ethyl)-4,7-dimethyl-5-oxo-4,5-dihydroimidazo[1,5-a]quinazolin-3-yl)-N-methylpicolinamide], the IC50 is reported as < 1000 nM.
With `Cc1cc(C(C)Nc2ccc(Cl)nc2-c2ncn(C)n2)c2c(c1)c(=O)n(C)c1c(C(=O)N(C)C)ncn21` (stereo not shown) [Compound 119, 9-(1-((6-Chloro-2-(1-methyl-1H-1,2,4-triazol-3-yl)pyridin-3-yl)amino)ethyl)-N,N,4,7-tetramethyl-5-oxo-4,5-dihydroimidazo[1,5-a]quinazoline-3-carboxamide] the IC50 was < 1000 nM.
In the case of `Cc1cc(C(C)Nc2ccc(Cl)nc2-c2cnn(C)c2)c2c(c1)c(=O)n(C)c1c(C(=O)N(C)C)ncn21` (stereo not shown) [Compound 120, 9-(1-((6-Chloro-2-(1-methyl-1H-pyrazol-4-yl)pyridin-3-yl)amino)ethyl)-N,N,4,7-tetramethyl-5-oxo-4,5-dihydroimidazo[1,5-a]quinazoline-3-carboxamide], the IC50 is reported as < 1000 nM.
In the case of `Cc1cc(C(C)Nc2ccc(Cl)nc2-c2cnn(C)c2)c2c(c1)c(=O)n(C)c1c(C(=O)N3CCC3)ncn21` (stereo not shown) [Compound 121, 3-(azetidine-1-carbonyl)-9-(1-((6-chloro-2-(1-methyl-1H-pyrazol-4-yl)pyridin-3-yl)amino)ethyl)-4,7-dimethylimidazo[1,5-a]quinazolin-5(4H)-one], the IC50 is reported as < 1000 nM.
For `Cc1cc(C(C)Nc2ccc(Cl)nc2-c2cnn(C)c2)c2c(c1)c(=O)n(C)c1c(C(=O)N3CC(O)C3)ncn21` (stereo not shown) [Compound 122, 9-(1-((6-chloro-2-(1-methyl-1H-pyrazol-4-yl)pyridin-3-yl)amino)ethyl)-3-(3-hydroxyazetidine-1-carbonyl)-4,7-dimethylimidazo[1,5-a]quinazolin-5(4H)-one], the IC50 was < 1000 nM.
For `Cc1cc(C(C)Nc2ccc(Cl)nc2-c2ncn(C)n2)c2c(c1)c(=O)n(CC(F)F)c1c(C(=O)N(C)C)ncn21` (stereo not shown) [Compound 123, 9-(1-((6-chloro-2-(1-methyl-1H-1,2,4-triazol-3-yl)pyridin-3-yl)amino)ethyl)-4-(2,2-difluoroethyl)-N,N,7-trimethyl-5-oxo-4,5-dihydroimidazo[1,5-a]quinazoline-3-carboxamide], the IC50 was < 1000 nM.
For `Cc1cc(C(C)Nc2ccc(Cl)nc2-c2c[nH]nc2C)c2c(c1)c(=O)n(C)c1c(C(=O)N(C)C)ncn21` (stereo not shown) [Compound 124, 9-(1-((6-Chloro-2-(3-methyl-1H-pyrazol-4-yl)pyridin-3-yl)amino)ethyl)-N,N,4,7-tetramethyl-5-oxo-4,5-dihydroimidazo[1,5-a]quinazoline-3-carboxamide], the IC50 was < 1000 nM.
